Active and inactive are the calls of the source. The calls are words filed in the database; no cut-off is given here.
What was measured:
Staphylococcus aureus [1] = assay: Antibacterial activity against Staphylococcus aureus clinical isolate incubated for 18 to 24 hrs; assay type: functional; conditions: time 18-24 hrs
Escherichia coli [2] = assay: Disruption of inner membrane in Escherichia coli ATCC25922 measured after 12 mins by PI staining based analysis; assay type: functional, organism-based
Staphylococcus aureus [3] = assay: Inhibition of biofilm formation of Staphylococcus aureus ATCC25923 at 0.5 ug/ml incubated for 20 hrs by crystal violet staining based analysis relative to control; assay type: functional
Escherichia coli [4] = assay: Disruption of outer membrane in Escherichia coli ATCC25922 measured after 10 mins by NPN dye based analysis; assay type: functional, organism-based; conditions: dose 4-16 µg/ml
Staphylococcus aureus [5] = assay: Induction of morphological change in Staphylococcus aureus ATCC25923 assessed as loss of bacterial membrane integrity at 16 times MIC incubated for 2 hrs by TEM analysis; assay type: functional, organism-based
Bacillus subtilis [6] = assay: Induction of morphological change in Bacillus subtilis ATCC9372 assessed as increase in cell length at 0.5 times MIC by phase contrast microscopy; assay type: functional, organism-based
Staphylococcus aureus [7] = assay: Induction of morphological change in Staphylococcus aureus ATCC25923 assessed as leakage of cell contents at 16 times MIC incubated for 2 hrs by TEM analysis; assay type: functional, organism-based
Staphylococcus aureus [8] = assay: Effect on proton gradient of cytoplasmic membrane in Staphylococcus aureus ATCC25923 at 1 ug/ml measured after 20 mins by diSC35 dye based analysis; assay type: functional, organism-based; conditions: Cytoplasm membrane, dose 1.0 µg/ml
[9] = Hemolytic activity in mouse erythrocytes at 16 ug/ml incubated for 1 hr by absorbance based assay; assay type: toxicity, cell-based, Erythrocyte; conditions: at 16 µg/mL, read-out: Activity
Bacillus subtilis [10] = assay: Antibacterial activity against penicillin-susceptible Bacillus subtilis ATCC9372 incubated for 18 to 24 hrs; assay type: functional; conditions: time 18-24 hrs
Escherichia coli [11] = assay: Induction of membrane potential depolarization in Escherichia coli ATCC25922 measured after 20 mins by diSC35 dye based spectroscopy; assay type: functional, organism-based
Staphylococcus aureus [12] = assay: Inhibition of bacterial proliferation of Staphylococcus aureus ATCC25923 at 0.125 ug/ml measured for 24 hrs by time-kill assay; assay type: functional, organism-based; conditions: dose 0.125 µg/ml
Enterococcus faecium = assay: Antibacterial activity against vancomycin-resistant Enterococcus faecium ATCC51559 assessed as bacterial growth inhibition incubated for 20 hrs by CLSI based broth microdilution method; assay type: functional
Staphylococcus aureus [13] = assay: Induction of membrane potential depolarization in Staphylococcus aureus ATCC25923 measured after 20 mins by diSC35 dye based spectroscopy; assay type: functional, organism-based
Staphylococcus aureus [14] = assay: Disruption of inner membrane in Staphylococcus aureus ATCC25923 at 0.5 ug/ml measured after 12 mins by PI staining based analysis; assay type: functional, organism-based; conditions: dose 0.5 µg/ml
Staphylococcus aureus [15] = assay: Bactericidal activity against Staphylococcus aureus ATCC25923 measured for 24 hrs by time-kill assay; assay type: functional, organism-based; conditions: dose 0.125-0.5 µg/ml
Klebsiella pneumoniae = assay: Antibacterial activity against Klebsiella pneumoniae ATCC BAA-1902 assessed as bacterial growth inhibition incubated for 20 hrs by CLSI based broth microdilution method; assay type: functional
[16] = target: T1, Cell division protein FtsZ (Bacillus subtilis) (UniProt A5Z1V5); assay: Induction of FtsZ polymerization in Bacillus subtilis preincubated for 10 mins followed by GTP addition measured upto 30 mins by absorbance based assay; conditions: dose 2.5-10 µg/ml, time 40.0 min
T1 sequence (whole entry): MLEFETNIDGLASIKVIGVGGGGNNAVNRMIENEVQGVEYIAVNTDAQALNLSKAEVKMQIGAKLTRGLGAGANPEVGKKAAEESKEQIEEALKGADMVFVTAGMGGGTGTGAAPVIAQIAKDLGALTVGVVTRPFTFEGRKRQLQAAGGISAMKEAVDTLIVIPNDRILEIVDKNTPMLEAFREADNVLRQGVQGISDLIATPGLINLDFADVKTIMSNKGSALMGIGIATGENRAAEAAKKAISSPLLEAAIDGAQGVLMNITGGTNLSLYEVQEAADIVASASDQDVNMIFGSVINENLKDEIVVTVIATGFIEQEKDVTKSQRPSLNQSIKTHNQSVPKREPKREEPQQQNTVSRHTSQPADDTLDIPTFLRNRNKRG

[17] = system: Staphylococcus epidermidis; assay: Antibacterial activity against penicillin-resistant Staphylococcus epidermidis clinical isolate assessed as bacterial growth inhibition incubated for 20 hrs by CLSI based broth microdilution method; assay type: functional
Staphylococcus aureus [18] = assay: Bactericidal activity against Staphylococcus aureus ATCC25923 assessed as log reduction in bacterial growth at 0.25 to 0.5 ug/ml measured for 9 to 12 hrs by time-kill assay; assay type: functional; conditions: dose 0.25-0.5 µg/ml; time 9-12 hrs
Enterococcus faecalis = assay: Antibacterial activity against vancomycin-resistant Enterococcus faecalis ATCC51299 assessed as bacterial growth inhibition incubated for 20 hrs by CLSI based broth microdilution method; assay type: functional
Staphylococcus aureus [19] = assay: Antibacterial activity against methicillin-resistant Staphylococcus aureus ATCC43300 incubated for 18 to 20 hrs; assay type: functional; conditions: time 18-20 hrs
Escherichia coli [20] = assay: Disruption of inner membrane in Escherichia coli ATCC25922 by PI staining based analysis; assay type: functional, organism-based; conditions: time 12.0 min, TDE = time-dependent effect
Staphylococcus aureus [21] = assay: Inhibition of biofilm formation of Staphylococcus aureus ATCC25923 incubated for 20 hrs by crystal violet staining based analysis; assay type: functional, organism-based
Streptococcus pyogenes = assay: Antibacterial activity against erythromycin-susceptible Streptococcus pyogenes 1 assessed as bacterial growth inhibition incubated for 20 hrs by CLSI based broth microdilution method; assay type: functional
Acinetobacter baumannii = assay: Selectivity ratio of MBC for Acinetobacter baumannii ATCC19606 to MIC for Acinetobacter baumannii ATCC19606; assay type: functional
Staphylococcus aureus [22] = assay: Antibacterial activity against erythromycin-susceptible Staphylococcus aureus ATCC25923 incubated for 18 to 24 hrs; assay type: functional; conditions: time 18-24 hrs
Staphylococcus aureus [23] = assay: Selectivity ratio of MBC for Staphylococcus aureus clinical isolate to MIC for Staphylococcus aureus clinical isolate; assay type: functional
Staphylococcus aureus [24] = assay: Disruption of inner membrane in Staphylococcus aureus ATCC25923 by PI staining based analysis; assay type: functional, organism-based; conditions: time 12.0 min, TDE = time-dependent effect
Bacillus subtilis [25] = assay: Selectivity ratio of MBC for penicillin-susceptible Bacillus subtilis ATCC9372 to MIC for penicillin-susceptible Bacillus subtilis ATCC9372; assay type: functional
Staphylococcus aureus [26] = assay: Selectivity ratio of MBC for erythromycin-susceptible Staphylococcus aureus ATCC25923 to MIC for erythromycin-susceptible Staphylococcus aureus ATCC25923; assay type: functional
Staphylococcus aureus [27] = assay: Induction of resistance development in Staphylococcus aureus ATCC25923 assessed as fold increase in MIC at 0.5 times MIC measured after 32 days by multi-passage resistance assay relative to control; assay type: functional; conditions: time 32.0 day
[28] = target: T1, Cell division protein FtsZ (Bacillus subtilis); assay: Induction of FtsZ polymerization in Bacillus subtilis at 2.5 to 10 ug/ml preincubated with compound followed by GTP addition by absorbance based assay; conditions: dose 2.5-10 µg/ml, time 40.0 min, TDE = time-dependent effect
Staphylococcus aureus [29] = assay: Antibacterial activity against methicillin-resistant Staphylococcus aureus ATCC43300 assessed as bacterial growth inhibition incubated for 20 hrs by CLSI based broth microdilution method; assay type: functional
Escherichia coli [30] = assay: Antibacterial activity against wild-type Escherichia coli BW25113 assessed as bacterial growth inhibition incubated for 20 hrs by CLSI based broth microdilution method; assay type: functional
Staphylococcus aureus [31] = assay: Antibacterial activity against penicillin-resistant Staphylococcus aureus ATCC31007 assessed as bacterial growth inhibition incubated for 20 hrs by CLSI based broth microdilution method; assay type: functional

C[n+]1cc(-c2ccccc2)c(/C=C/c2ccc(C(C)(C)C)cc2)cc1-c1ccc(C(C)(C)C)cc1.[I-]
MBC (Staphylococcus aureus [1]): 0.125 µg/mL
Activity (Escherichia coli [2]): Dose-Dependent Effect
inhibition at 0.5 µg/mL (Staphylococcus aureus [3]): 6.06%
Activity (Escherichia coli [4]): Dose-Dependent Effect
Activity (Staphylococcus aureus [5]): Active
Activity (Bacillus subtilis [6]): Active
Activity (Staphylococcus aureus [7]): Active
Activity (Staphylococcus aureus [8]): Active
hemolysis at 1 h, 16 ug/ml [9]: 6.37%
MBC (Bacillus subtilis [10]): 0.25 µg/mL
Activity (Escherichia coli [11]): Dose-Dependent Effect
inhibition (Staphylococcus aureus [12]): inactive
MIC (Enterococcus faecium): 0.5 µg/mL
Activity (Staphylococcus aureus [13]): Dose-Dependent Effect
Activity (Staphylococcus aureus [14]): Active
Activity (Staphylococcus aureus [15]): Dose-Dependent Effect
MIC (Klebsiella pneumoniae): 4 µg/mL
Activity [16]: Dose-Dependent Effect
MIC [17]: 0.5 µg/mL
Activity (Staphylococcus aureus [18]): 0 log10CFU/ml
MIC (Enterococcus faecalis): 0.5 µg/mL
MBC (Staphylococcus aureus [19]): 0.5 µg/mL
Activity (Escherichia coli [20]): Tde
inhibition (Staphylococcus aureus [21]): Dose-Dependent Effect
MIC (Streptococcus pyogenes): 2 µg/mL
Ratio (Acinetobacter baumannii): 2
MBC (Staphylococcus aureus [22]): 0.25 µg/mL
Ratio (Staphylococcus aureus [23]): 2
Activity (Staphylococcus aureus [24]): Tde
Ratio (Bacillus subtilis [25]): 2
Ratio (Staphylococcus aureus [26]): 4
fold change (FC) (Staphylococcus aureus [27]): 2
Activity [28]: Tde
MIC (Staphylococcus aureus [29]): 0.125 µg/mL
MIC (Escherichia coli [30]): 2 µg/mL
MIC (Staphylococcus aureus [31]): 1 µg/mL

Source: ChEMBL document CHEMBL5537115, “New broad-spectrum and potent antibacterial agents with dual-targeting mechanism: Promoting FtsZ polymerization and disrupting bacterial membranes” (Eur J Med Chem, 2024)
